Laboratory results as given in BigSolDB 2.1.

ClCc1ccc(Cl)nc1
Details | solubility (mole fraction)
in acetone, 278.85 K | 0.0226
in acetone, 281.75 K | 0.0249
in acetone, 283.55 K | 0.0267
in acetone, 284.65 K | 0.0278
in acetone, 288.95 K | 0.0325
in acetone, 291.15 K | 0.0353
in acetone, 293.65 K | 0.0385
in acetone, 295.85 K | 0.0415
in acetone, 297.65 K | 0.0442
in acetone, 300.35 K | 0.0486
in acetone, 302.95 K | 0.0528
in acetone, 304.85 K | 0.0566
in acetone, 307.05 K | 0.0604
in chloroform, 275.85 K | 0.0164
in chloroform, 279.35 K | 0.0204
in chloroform, 281.55 K | 0.0235
in chloroform, 284.35 K | 0.028
in chloroform, 287.45 K | 0.0339
in chloroform, 290.35 K | 0.0405
in chloroform, 292.95 K | 0.0473
in chloroform, 295.25 K | 0.0546
in chloroform, 297.65 K | 0.063
in chloroform, 298.55 K | 0.0665
in chloroform, 300.45 K | 0.0745
in chloroform, 302.75 K | 0.0858
in chloroform, 306.95 K | 0.109
in ethanol, 277.65 K | 0.00332
in ethanol, 279.75 K | 0.00365
in ethanol, 282.05 K | 0.00406
in ethanol, 284.75 K | 0.00456
in ethanol, 287.35 K | 0.00521
in ethanol, 289.65 K | 0.00576
in ethanol, 292.65 K | 0.00661
in ethanol, 295.35 K | 0.00749
in ethanol, 298.35 K | 0.00859
in ethanol, 301.85 K | 0.0102
in ethanol, 304.15 K | 0.0112
in ethanol, 305.85 K | 0.012
in ethanol, 307.25 K | 0.0127
in ethyl acetate, 278.35 K | 0.00447
in ethyl acetate, 280.05 K | 0.00488
in ethyl acetate, 281.65 K | 0.0053
in ethyl acetate, 284.75 K | 0.00619
in ethyl acetate, 286.25 K | 0.00667
in ethyl acetate, 288.15 K | 0.00731
in ethyl acetate, 290.45 K | 0.00825
in ethyl acetate, 292.95 K | 0.00939
in ethyl acetate, 296.15 K | 0.011
in ethyl acetate, 299.05 K | 0.0125
in ethyl acetate, 302.95 K | 0.0153
in ethyl acetate, 305.35 K | 0.0167
in ethyl acetate, 306.45 K | 0.0176
in ethyl acetate, 307.45 K | 0.0184
in methanol, 277.25 K | 0.00235
in methanol, 281.35 K | 0.00277
in methanol, 282.75 K | 0.00296
in methanol, 284.35 K | 0.00319
in methanol, 288.85 K | 0.00392
in methanol, 292.75 K | 0.00468
in methanol, 296.05 K | 0.00537
in methanol, 299.25 K | 0.00607
in methanol, 303.75 K | 0.00722
in methanol, 305.35 K | 0.00768
in methanol, 306.55 K | 0.00803
in toluene, 278.75 K | 0.0191
in toluene, 281.55 K | 0.0249
in toluene, 283.25 K | 0.0293
in toluene, 287.35 K | 0.043
in toluene, 288.15 K | 0.0464
in toluene, 290.75 K | 0.059
in toluene, 292.15 K | 0.0671
in toluene, 293.75 K | 0.0776
in toluene, 295.45 K | 0.0906
in toluene, 297.75 K | 0.111
in toluene, 301.65 K | 0.158
in toluene, 305.55 K | 0.223
in water, 277.75 K | 0.000167
in water, 280.25 K | 0.000174
in water, 283.75 K | 0.000197
in water, 288.35 K | 0.000215
in water, 292.15 K | 0.000234
in water, 294.25 K | 0.000249
in water, 297.65 K | 0.000265
in water, 301.25 K | 0.000288
in water, 302.95 K | 0.000295
in water, 304.25 K | 0.000308
in water, 305.85 K | 0.00032
in water, 308.75 K | 0.000332
in water, 309.15 K | 0.00034
